Experimental data from US5032398A, “Selective modification of the catalytic subunit of pertussis toxin” (priority 1986, dated 1991).
Values joined by “and” are separate entries in the source; they are usually repeats but may differ in a detail not shown here. Equal values may be shown once. Read-outs that look alike come from different tables or passages of the source.

Assays:
pertussis toxin [1] = molecular target: T1, pertussis toxin (Bordetella pertussis, UniProt P04977); experiment: NADase activity in the presence of sulfhydryl reducing agents (Example Five); assay type: biochemical
T1 sequence (P04977 35-269 limits assumed): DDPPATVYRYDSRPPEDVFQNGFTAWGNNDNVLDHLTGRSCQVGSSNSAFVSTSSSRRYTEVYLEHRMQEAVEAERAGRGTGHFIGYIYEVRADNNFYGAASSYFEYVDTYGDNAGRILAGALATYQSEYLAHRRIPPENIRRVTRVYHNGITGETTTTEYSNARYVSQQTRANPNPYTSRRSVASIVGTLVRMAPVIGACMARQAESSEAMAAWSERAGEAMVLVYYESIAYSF
Method: In the description herein, activation constants for the substances may be expressed by a numerical value (A0.5) by using an NADase assay.
(§1) The pertussis toxin in the Examples comprised 50 μg of the toxin in a 500 μl solution of 10 mM sodium phosphate-50 mM sodium chloride-water solution having a pH of 7. The enzymatic activity was detected as the hydrolysis of nicotinamide labelled NAD and ion-exchange column chromatography to resolve the product from the substrate. Unless otherwise noted, the assay was initiated by adding 0.5 to 2.5 μg of the toxin to a reaction mixture for a final volume of 100 μl. The NADase reaction was terminated by adding 0.85 ml of ice-cold water. The entire 0.95 ml was then pipetted into a QAE-Sephadex column (chloride form) and the labelled nicotinamide eluted with 3 ml of water directly into a scintillation vial and counted. […] One unit of NADase activity is defined as 1 pmol NAD hydrolyzed per hour.
Pertussis toxin NADase activity was assayed in the presence of various sulfhydryl reducing agents at various concentrations. The assay buffer contained 1% CHAPS and 1 mM ATP.

pertussis toxin [2] = molecular target: T1, pertussis toxin; experiment: Inactivation of NADase activity by iodoacetate after different activator combinations (Example Seven); assay type: biochemical; conditions: additions to first incubation only (DTT 1 mM, ATP 1 mM, CHAPS 1%), second incubation none
Method: (§2) Pertussis toxin was incubated first at 37° C. for fifteen minutes in […] buffer A (100 mM Tris-HCl, pH 8.0 with 1 mM NaEDTA). EDTA was added to chelate divalent cations, which may promote oxidation of free --SH groups. During this incubation, DTT and ATP were present in concentrations of 1 mM each, and CHAPS was present in a concentration of 1 weight percent. Labelled iodoacetate was then added ([…], 12.5 mM), and the tube incubated on ice for twenty hours. The sample was then mixed with sodium dodecylsulfate and β-mercaptoethanol, heated at 95° C. for one minute, and electrophoresed. After electrophoresis, the gel was fixed, treated with Fluorohance (Research Products International), dried and used to expose x-ray film.
(§3) Pertussis toxin was incubated at 37° C. for fifteen minutes as described in Example Six, and then a second incubation was begun by adding 10 μl buffer A with or without 12.5 mM iodoacetate, mixing the contents of the tube and lowering the temperature to 30° C. After fifteen minutes, the tubes were shifted to an ice bath for ten minutes. A third incubation was then begun by adding 10 μl buffer A containing 200 mM DTT to those tubes containing iodoacetate to scavenge the iodoacetate. To those tubes not containing iodoacetate during the second incubation, a mixture of 200 mM DTT and 12.5 mM iodoacetate in buffer A, previously incubated for an hour on ice, was added. The third incubation was continued for one hour on ice.
(§4) The contents of each tube were then assayed for NADase activity by adding 40 μl of a reaction mix consisting of buffer A containing carbon-14 labelled NAD (final concentration in the 100 μl final volume was 25 μM), and 50 mM sodium chloride. Different reaction mixtures with various additions were used, so that in all tubes the final concentration of ATP was 1 mM and CHAPS was 1 weight percent. The assay was conducted at 37° C. for sixty minutes, and the released labelled nicotinimide was isolated and counted. The iced controls were formed by incubating pertussis toxin (1 μg) on ice in 10 mM sodium phosphate (pH 7) and 50 mM sodium chloride during the first three incubations. […] The first three incubations were done under a nitrogen atmosphere using degassed conditions, and the second and third incubations were done under subdued light.

pertussis toxin [3] = molecular target: T1, pertussis toxin; experiment: NADase activity in the presence of sulfhydryl reducing agents (Example Five); assay type: biochemical; conditions: 10 mM DTT without ATP
[4] = tested on: S1 -S5 subunits of the toxin; experiment: Labelled iodoacetate incorporation into toxin subunits, electrophoresis and x-ray film (Examples Two and Six); parameters: species or system Bordetella pertussis; conditions: CHAPS added, compared with DTT and ATP or DTT alone
S1 -S5 subunits of the toxin, sequence (P04977 35-269 limits assumed): as above
S1 -S5 subunits of the toxin, sequence (P04978 28-226 limits assumed, further chain): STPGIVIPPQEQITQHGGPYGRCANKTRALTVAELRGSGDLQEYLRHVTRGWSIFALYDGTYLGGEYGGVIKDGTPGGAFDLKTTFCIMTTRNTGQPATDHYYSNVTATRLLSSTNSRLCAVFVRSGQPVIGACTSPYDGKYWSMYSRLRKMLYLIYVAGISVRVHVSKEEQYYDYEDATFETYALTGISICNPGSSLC
S1 -S5 subunits of the toxin, sequence (P04979 29-227 limits assumed, further chain): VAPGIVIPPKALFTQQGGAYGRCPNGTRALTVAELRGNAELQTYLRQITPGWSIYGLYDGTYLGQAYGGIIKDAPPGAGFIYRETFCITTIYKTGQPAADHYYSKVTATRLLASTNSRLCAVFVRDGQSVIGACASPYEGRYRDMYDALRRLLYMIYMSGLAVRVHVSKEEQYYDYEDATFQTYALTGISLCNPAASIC
S1 -S5 subunits of the toxin, sequence (P0A3R5 43-152 limits assumed, further chain): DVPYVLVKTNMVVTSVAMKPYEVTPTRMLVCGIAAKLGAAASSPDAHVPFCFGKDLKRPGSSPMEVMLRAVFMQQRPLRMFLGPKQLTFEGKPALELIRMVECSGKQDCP
S1 -S5 subunits of the toxin, sequence (P04981 35-133 limits assumed, further chain): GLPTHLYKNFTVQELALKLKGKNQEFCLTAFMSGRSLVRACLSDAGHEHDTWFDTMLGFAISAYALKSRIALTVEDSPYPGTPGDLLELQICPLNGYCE
Method: Pertussis toxin (2.5 μg) was incubated for thirty minutes at 37° C. in 50 μl of 50 mM Tris-HCl (pH 8.0) with or without combinations of the activators ATP, CHAPS and DTT. During this incubation, ATP was 1 mM, CHAPS was 1 weight percent, and DTT was 0.5 mM, when present. Following this incubation, 75 nmol (1.34 microCi of iodo[^14 C]acetate and 25 μl of water were then added, and the tubes incubated for an additional thirty minutes under nitrogen gas at 30° C. in the dark. This labelling reaction was terminated by adding 1 ml of ice-cold water containing 7.5 mM non-radioactive iodoacetate, 2.5 μg bovine serum albumin, and 150 μg sodium deoxycholate. After ten minutes on ice, 100 μl 72% triochloroacetic acid was added, and the precipitate recovered by centrifugation. Sodium dodecylsulfate and beta-mercaptoethanol were added, the sample heated to 95° C. for one minute, and then electrophoresed using 15% polyacrylamide gels. The fixed gels were then treated, dried and used to expose x-ray film at -70° C.
as §2

pertussis toxin [5] = molecular target: T1, pertussis toxin; experiment: Inactivation of NADase activity by sulfhydryl reagents, 6 minutes or 18 hours at 0-4° (Example Eight); assay type: biochemical
Method: as §3, §4
The procedure followed in Example Seven was repeated for this study, except that N-ethylmaleimide, chloroacetamide or chloroacetate were substituted for iodoacetate. After the 30° C. incubation, the tubes were either incubated for six minutes or eighteen hours at 0°-4° C. before the 10 μl of 200 mM DTT (with or without quenched reagent) was added. Those tubes receiving the DTT after six minutes were incubated for nineteen hours at 0°-4° C. prior to the NADase assay. Those receiving the DTT after eighteen hours were incubated with DTT for one hour, as in Example Seven. The tubes were then assayed for NADase activity at the same time.

pertussis toxin [6] = molecular target: T1, pertussis toxin; experiment: Effect of detergents on the NADase activity of pertussis toxin (Example Four); assay type: biochemical; conditions: 1 mM ATP, 10 mM DTT; for Fractional Activity with CHAPS: detergent 1 weight percent plus CHAPS 1%; for Fractional Activity with CHAPS / Fractional Activity without CHAPS: relative to 1% CHAPS alone; for Fractional Activity without CHAPS: detergent 1 weight percent
Method: as §1
The effect of detergents on the NADase activity of pertussis toxin was measured in the presence of various detergents at a concentration of 1 weight percent in either the absence or presence of the detergent CHAPS (1 percent by weight). ATP was present in all assays in a concentration of 1 mM, and DTT concentration was 10 mM. Fractional activity is shown in Table III and is defined as activity divided by activity in the presence of 1% CHAPS. The value given is the average for two separate trials, and in each trial duplicates were measured for each condition.

pertussis toxin [7] = molecular target: T1, pertussis toxin; experiment: NADase activity of pertussis toxin after activation and treatment with alkylating reagent (Example One); assay type: biochemical
From the text: The ADP-ribosylating activity of the pertussis toxin can be detected as a nicotinamide-adenine dinucleotide-glycohydrolase (NADase) activity, which can be conveniently assayed through the use of [nicotinamide-^14 C] or [nicotinamide-^3 H] NAD. NAD consists of ADP-ribose linked to nicotinimide, and thus the extent of the release of ADP-ribose from NAD is an indication of the ability of the toxin to cause ill effects. In conducting this assay of the hydrolysis of labelled NAD, ion-exchange column chromatography was employed to resolve the product from the substrate according to the method described by Moss et al., J. Biol. Chem. 258, 11879 (1983) which is incorporated herein by reference. However, several modifications to this method were employed. First, a QAE-Sephadex resin was employed, as was a [nicotinamide-^3 H] NAD. Specifically, a 2 ml QAE-Sephadex column was first washed with 10 ml 1NHCl, followed by 10 ml H2 O, 20 ml 0.5M Tris-HCl pH 7.0, and 40 ml H2 O. [^3 H] NAD was applied, and the column washed with 20 ml water to elute impurities. Purified [^3 H] NAD was eluted with 0.25M NaCl, and stored in small aliquots at -70° C. The purified [^3 H] NAD contributed 50 mM NaCl (final concentration) to the NADase assays.
Before the end of the reaction, 2 ml QAE-Sephadex columns were treated with 10 ml 0.1M imidazole-HCl pH 7.0 with 1.0M NaCl, followed by 40 ml water. The NADase reaction (in 100 μl) was terminated by adding 0.85 ml of ice-cold water, and the entire 0.95 ml was pipetted into a treated QAE column. The labelled nicotinamide was then eluted with 3 ml of water directly into a scintillation vial and counted. The absorbed labelled NAD was then eluted into radioactive waste with 10 ml 0.1M imidazole-HCl pH 7.0 with 1.0M NaCl, and the column stored partially immersed in a water bath until the next assay.
In order to determine if any active toxin remained after the inactivation, a large excess of sulfhydryl reductant was added to each tube to scavenge unreacted sulfhydryl reagent. The NADase activity of the preparation was then measured. The three incubations were performed under a nitrogen atmosphere using degassed solutions to prevent oxidation of sulfhydryl groups which would prevent the sulfhydryl reagent from modifying the sulfhydryl group.
as §1
One-half microgram of pertussis toxin was incubated for thirty minutes at […] in 100 mM Tris-HCl (pH 8.0), with or without activators, in a volume of 50 μl. When present, ATP and pyrophosphate were present in a concentration of 2 mM, CHAPS at 2 weight percent, and DTT in a concentration of either 2 mM (trial 1) or 1 mM (trial 2). 10 μl of water with or without iodoacetate or N-ethylmaleimide was then added and a second incubation conducted at 30° C. for either thirty minutes (trial 1) or fifteen minutes (trial 2). After this incubation, 10 μl of 200 mM DTT was added to each tube, and the tubes were incubated for thirty (trial 1) or sixty minutes (trial 2) on ice to scavenge the iodoacetate or N-ethylmaleimide.

[8] = first incubation: ATP, DTT, CHAPS, 6 minutes at 0-4°
[9] = first incubation: ATP, DTT, CHAPS, 18 hours at 0-4°

## O[C@H](CS)[C@H](O)CS (racemic) [DTT, dithiothreitol]
Pertussis toxin [1]
  Effectiveness as sulfhydryl reductant to prepare the toxin for deactivation, in words: effective
Pertussis toxin [1]; 10 mM DTT with 1 mM ATP
  NADase activity: 147 U per microgram toxin and 195 U per microgram toxin
Pertussis toxin [1]; read-out: concentration for half of the maximum effect (A0.5)
  EC50: 0.2 mM
Pertussis toxin [1]; read-out: concentration showing full activation
  EC100: 1000 µM
Pertussis toxin [2]; read-out: Percent NADase activity relative to iced control
  remaining activity at 1000 µM: 38%
Pertussis toxin [3]
  NADase activity: 18 U per microgram toxin and 36 U per microgram toxin

## C[C@H](CCC(=O)NCCC[N+](C)(C)CCCS(=O)(=O)[O-])[C@H]1CC[C@H]2[C@@H]3[C@H](O)C[C@@H]4C[C@H](O)CC[C@]4(C)[C@H]3C[C@H](O)[C@]12C [CHAPS, 3-[(3-cholamidopropyl)-dimethylammonio]-1-propane sulfonate]
[4]
  Peak indicating the alkylation of the S1 subunit: increases
  Peaks indicating alkylation of the S2 and S3 subunits: substantially decreases
Pertussis toxin [5]; additions to first incubation only, second incubation none, 18 hours at 0-4°
  NADase activity: 186 pmol per μg per hour
Pertussis toxin [2]
  Percent NADase activity relative to iced control: 106
Pertussis toxin [6]; 1% CHAPS, two trials
  NADase activity in the presence of CHAPS alone: 153 units per microgram and 158 units per microgram

## CCN1C(=O)C=CC1=O [N-ethylmaleimide]
Pertussis toxin [5]; [8]
  NADase activity: 16 pmol per μg per hour
  percent of activity with no addition to second incubation: 15%
Pertussis toxin [5]; [9]
  NADase activity: 10 pmol per μg per hour
  percent of activity with no addition to second incubation: 10%
Pertussis toxin [7]; first incubation: DTT 1 mM, CHAPS 2%, ATP 2 mM, Experiment #2, second incubation 15 min at 30° C, 25 μM NAD
  NADase activity (%) of the activity of toxin treated the same way without alkylating agent: 13%
Pertussis toxin [7]; first incubation: DTT 1 mM, CHAPS 2%, pyrophosphate 2 mM, Experiment #2, second incubation 15 min at 30° C, 25 μM NAD
  NADase activity (%) of the activity of toxin treated the same way without alkylating agent: 46%
Pertussis toxin [7]; first incubation: DTT 2 mM, CHAPS 2%, ATP 2 mM, Experiment #1, second incubation 30 min at 30° C, 125 μM NAD
  NADase activity (%) of the activity of toxin treated the same way without alkylating agent: 11%
Pertussis toxin [7]; first incubation: DTT 2 mM, CHAPS 2%, pyrophosphate 2 mM, Experiment #1, second incubation 30 min at 30° C, 125 μM NAD
  NADase activity (%) of the activity of toxin treated the same way without alkylating agent: 60%
Pertussis toxin [7]; first incubation: none, Experiment #1, second incubation 30 min at 30° C, 125 μM NAD
  NADase activity (%) of the activity of toxin treated the same way without alkylating agent: 90%
Pertussis toxin [7]; first incubation: none, Experiment #2, second incubation 15 min at 30° C, 25 μM NAD
  NADase activity (%) of the activity of toxin treated the same way without alkylating agent: 106%

## N[C@@H](CS)C(=O)O [cysteine]
Pertussis toxin [1]
  Effectiveness as sulfhydryl reductant to prepare the toxin for deactivation, in words: effective
Pertussis toxin [1]; in the presence of ATP and CHAPS
  activation constant: the same constant

## N[C@@H](CCC(=O)N[C@@H](CS)C(=O)NCC(=O)O)C(=O)O [glutathione]
Pertussis toxin [1]
  Effectiveness as sulfhydryl reductant to prepare the toxin for deactivation, in words: effective
Pertussis toxin [1]; in the presence of ATP and CHAPS, read-out: activation constant
  EC50: 2 mM

## NP-40
Pertussis toxin [6]
  Fractional Activity with CHAPS: 0.97
  Fractional Activity without CHAPS: 0.54

## Triton X-100
Pertussis toxin [6]
  Fractional Activity with CHAPS: 1.05
  Fractional Activity without CHAPS: 0.58
